According to PubChem BioAssay (NCI):
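Cultured in 96-well plates, cells were exposed to test compound for 48 hours across five concentrations. TGI denotes the concentration required for complete inhibition of growth.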

How the values were obtained:
Assay in all cases: NCI-60 cell line screen, 48 h
[1] = test system: OVCAR-4 ovarian
[2] = test system: HL-60(TB) leukemia
[3] = test system: COLO 205 colon
[4] = test system: CAKI-1 renal
[5] = test system: LOX IMVI melanoma
[6] = test system: MDA-N
[7] = test system: UACC-62 melanoma
[8] = test system: PC-3 prostate
[9] = test system: HCT-116 colon
[10] = test system: SK-OV-3 ovarian
[11] = test system: 786-0 renal
[12] = test system: OVCAR-8 ovarian
[13] = test system: EKVX NSCLC
[14] = test system: IGROV1 ovarian
[15] = test system: SR leukemia

Row | SMILES | TGI [1] | TGI [2] | TGI [3] | TGI [4] | TGI [5] | TGI [6] | TGI [7] | TGI [8] | TGI [9] | TGI [10] | TGI [11] | TGI [12] | TGI [13] | TGI [14] | TGI [15]
1 | OCCOCCO[P+]1(OCCOCCO)n2c3ccc2C(c2ccccc2)=C2C=CC(=N2)C(c2ccccc2)=c2ccc(n21)=C(c1ccccc1)C1=NC(=C3c2ccccc2)C=C1 | 1.05 µM | 0.18 µM | 0.0998 µM | 3.79 µM | 0.952 µM | 0.121 µM | 0.633 µM | 1.2 µM | 0.358 µM | 1.79 µM | 1.51 µM | 2.09 µM | – | – | –
2 | Cn1ncc2c(NCCc3ccccc3)nc(Cl)nc21 | 57.7 µM | – | 34.2 µM | 91.4 µM | > 100 µM | 56.5 µM | 45.1 µM | 71.8 µM | > 100 µM | 71.7 µM | 64.2 µM | > 100 µM | 23.3 µM | > 100 µM | –
3 | Cc1sc(N=Nc2c(O)[nH]c3ccccc23)nc1-c1ccccc1 | 42.3 µM | 25 µM | 46.2 µM | 32.8 µM | 36 µM | 76.4 µM | 34.3 µM | – | 35.1 µM | 33.6 µM | 36.6 µM | 40.2 µM | 31.6 µM | 27.1 µM | –
4 | CNC(Cc1ccccc1)c1cccc(OC)c1O (stereo unspecified) | > 100 µM | – | – | > 100 µM | > 100 µM | > 100 µM | > 100 µM | > 100 µM | > 100 µM | – | > 100 µM | > 100 µM | > 100 µM | > 100 µM | > 100 µM
5 | Cc1ccc2c(c1)NC(=O)C(N=[N+]=[N-])(c1ccccc1)C2=O (stereo unspecified) | > 100 µM | 37.5 µM | 27.1 µM | 78.1 µM | 37.7 µM | – | 61.3 µM | – | 79.4 µM | 84.3 µM | > 100 µM | 58.7 µM | 95.3 µM | > 100 µM | 56.7 µM
6 | Cc1cc(S(=O)(=O)Nc2nc(N)n(C)n2)c(S)cc1Cl | > 10 µM | > 10 µM | > 10 µM | > 10 µM | > 10 µM | > 10 µM | > 10 µM | > 10 µM | > 10 µM | > 10 µM | > 10 µM | > 10 µM | > 10 µM | > 10 µM | –
7 | Nc1ncnc2c1ncn2CC(OCP(=O)(O)O)Oc1ccccc1 (stereo unspecified) | > 100 µM | – | > 100 µM | > 100 µM | > 100 µM | > 100 µM | > 100 µM | > 100 µM | > 100 µM | > 100 µM | > 100 µM | – | > 100 µM | – | –
8 | c1ccc(C2CC(N3CCOCC3)=Nc3ccccc3N2)cc1 (stereo unspecified) | > 100 µM | > 100 µM | > 100 µM | > 100 µM | – | > 100 µM | > 100 µM | > 100 µM | > 100 µM | > 100 µM | > 100 µM | > 100 µM | > 100 µM | > 100 µM | –
9 | C(/COc1cccnc1)=N\NC1=NCCN1 | > 100 µM | > 100 µM | > 100 µM | > 100 µM | > 100 µM | – | > 100 µM | – | > 100 µM | > 100 µM | > 100 µM | > 100 µM | > 100 µM | > 100 µM | > 100 µM
10 | Nc1nc(=O)n(C2OC(CO)C(O)C2O)cc1F (stereo unspecified) | > 100 µM | – | > 100 µM | > 100 µM | > 38 µM | – | 5.3 µM | – | > 100 µM | > 100 µM | – | > 100 µM | > 40.9 µM | > 100 µM | –
11 | COC(=O)[C@]1(c2cc3ccccc3[nH]2)CC2CN(CC(=O)N(C)OC)C1C1OC(C)(C)OC21 (stereo partly specified) | > 100 µM | 51.4 µM | > 100 µM | > 100 µM | > 100 µM | > 100 µM | > 100 µM | > 100 µM | > 100 µM | > 100 µM | > 100 µM | > 100 µM | > 100 µM | > 100 µM | –
12 | COc1cccc(/C=N/n2c(-c3ccccc3)n[nH]c2=O)c1 | > 100 µM | – | > 100 µM | > 100 µM | – | > 100 µM | > 100 µM | > 100 µM | > 100 µM | > 100 µM | > 100 µM | 96.9 µM | > 100 µM | – | –
13 | CC[n+]1[b-](C(C)(C)C)n(/N=C(\C)C(C)(C)C)[b-](C(C)(C)C)[n+]1CC | > 100 µM | – | – | > 100 µM | > 100 µM | – | > 100 µM | > 100 µM | > 100 µM | – | > 100 µM | > 100 µM | > 100 µM | > 100 µM | 56.8 µM
14 | CCCCCCCCCCCCCCCCCCNc1ccn(C2OC(CO)C(OP(=O)(O)OCC3CCC(n4ccc(N)nc4=O)O3)C2O)c(=O)n1 (stereo unspecified) | > 100 µM | 43.6 µM | > 100 µM | > 100 µM | > 100 µM | > 100 µM | > 100 µM | 40.6 µM | > 100 µM | > 100 µM | > 100 µM | > 100 µM | > 100 µM | > 100 µM | –
15 | Nc1nc(Cl)c2ncn(Cc3ccccc3CCl)c2n1 | 6.47 µM | > 100 µM | > 100 µM | 20.4 µM | 21.9 µM | – | 4.33 µM | 68.1 µM | > 100 µM | 52.1 µM | 52 µM | 19.6 µM | 31.1 µM | > 100 µM | > 100 µM
16 | COc1cc2c(cc1OC)-c1cc3ccccc3c(=O)n1CCC2 | > 100 µM | 11.5 µM | > 60.2 µM | 44.9 µM | 13.7 µM | 33.6 µM | 36.5 µM | 62.7 µM | > 38.6 µM | > 100 µM | > 51.3 µM | 61.2 µM | > 100 µM | 66 µM | –
17 | COc1cc(/C=C2\NC(=O)N(/C=C3\C(=O)Oc4ccccc4C3=O)C2=O)ccc1O | > 100 µM | 62 µM | > 100 µM | > 100 µM | > 100 µM | > 100 µM | > 100 µM | > 100 µM | > 100 µM | > 100 µM | > 100 µM | > 100 µM | > 100 µM | > 100 µM | –
